Source: the supplement of paper PMC10307832

How the values were obtained:
Assay in all cases: relative viability (nuclei count vs DMSO), 5 days (fraction); higher = more cells survive
[1] = compound: COc1cc2nc(N3CCCN(C)CC3)nc(NC3CCN(Cc4ccccc4)CC3)c2cc1OC + Cc1cc(Nc2cc(N3CCN(C)CC3)nc(Sc3ccc(NC(=O)C4CC4)cc3)n2)n[nH]1 [Tozasertib] (partner 0.1 µM)
Outline: (§1)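 Medians of duplicate plates are given as relative viability. That measure is the nuclei count in treated wells divided by the count in vehicle wells. Counts were taken on 4× images of lung cancer cell lines in 1536-well plates, 5 days after pin-tool dosing the day after seeding with one drug alone or a fixed anchor-drug dose plus five library-drug doses (not always all listed) in √10 steps.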

[2] = compound: COc1cc2nc(N3CCCN(C)CC3)nc(NC3CCN(Cc4ccccc4)CC3)c2cc1OC + CS(=O)(=O)N1CCN(Cc2cc3nc(-c4cccc5[nH]ncc45)nc(N4CCOCC4)c3s2)CC1 [Pictilisib] (partner 1 µM)
Outline: as §1

[3] = compound: COc1cc2nc(N3CCCN(C)CC3)nc(NC3CCN(Cc4ccccc4)CC3)c2cc1OC + C[C@@H](Oc1cc(-c2cnn(C3CCNCC3)c2)cnc1N)c1c(Cl)ccc(F)c1Cl [Crizotinib] (partner 1 µM)
Outline: as §1

[4] = compound: COc1cc2nc(N3CCCN(C)CC3)nc(NC3CCN(Cc4ccccc4)CC3)c2cc1OC + C[C@]1(O)C[C@@H](c2nc(-c3ccc4ccc(-c5ccccc5)nc4c3)c3c(N)nccn32)C1 [Linsitinib] (partner 1 µM)
Outline: as §1

[5] = compound: COc1cc2nc(N3CCCN(C)CC3)nc(NC3CCN(Cc4ccccc4)CC3)c2cc1OC + COc1cccc2cc(-c3nc([C@H]4CC[C@H](C(=O)O)CC4)n4ncnc(N)c34)[nH]c12 [OSI-027] (partner 0.5 µM)
Outline: as §1

Cell Line | relative viability ([1]; first compound 0.2 µM) | relative viability ([1]; first compound 0.6325 µM) | relative viability ([1]; first compound 2 µM) | relative viability ([1]; first compound 6.325 µM) | relative viability ([2]; first compound 0.2 µM) | relative viability ([2]; first compound 0.6325 µM) | relative viability ([2]; first compound 2 µM) | relative viability ([2]; first compound 6.325 µM) | relative viability ([3]; first compound 0.2 µM) | relative viability ([3]; first compound 0.6325 µM) | relative viability ([3]; first compound 2 µM) | relative viability ([3]; first compound 6.325 µM) | relative viability ([4]; first compound 0.2 µM) | relative viability ([4]; first compound 0.6325 µM) | relative viability ([4]; first compound 2 µM) | relative viability ([4]; first compound 6.325 µM) | relative viability ([5]; first compound 0.2 µM) | relative viability ([5]; first compound 0.6325 µM) | relative viability ([5]; first compound 2 µM) | relative viability ([5]; first compound 6.325 µM)
NCI-H2126 | 0.818 | 0.874 | 0.868 | 0.826 | 0.505 | 0.557 | 0.456 | 0.47 | 0.978 | 0.969 | 1.08 | 0.996 | 0.69 | 0.707 | 0.724 | 0.708 | 0.769 | 0.794 | 0.693 | 0.662
NCI-H2228 | 0.254 | 0.311 | 0.265 | 0.257 | 0.385 | 0.256 | 0.405 | 0.175 | 0.529 | 0.396 | 0.479 | 0.334 | 0.59 | 0.587 | 0.83 | 0.476 | 0.539 | 0.451 | 0.499 | 0.256
NCI-H2347 | 0.568 | 0.604 | 0.743 | 0.64 | 0.702 | 0.686 | 0.574 | 0.549 | 0.794 | 0.675 | 0.634 | 0.626 | 0.936 | 0.927 | 0.882 | 0.922 | 0.461 | 0.304 | 0.452 | 0.472
NCI-H2405 | 0.711 | 0.696 | 0.83 | 0.74 | 0.453 | 0.383 | 0.584 | 0.328 | 0.869 | 0.825 | 0.927 | 0.894 | 0.934 | 0.975 | 0.979 | 0.809 | 0.717 | 0.677 | 0.671 | 0.66
NCI-H3122 | 0.429 | 0.413 | 0.543 | 0.536 | 0.589 | 0.634 | 0.601 | 0.478 | 0.256 | 0.305 | 0.293 | 0.267 | 1.01 | 1.01 | 1.03 | 1.06 | 0.935 | 0.877 | 0.992 | 0.729
PC-3 [JPC-3] | 0.932 | 0.915 | 0.938 | 0.88 | 0.721 | 0.763 | 0.6 | 0.805 | 0.972 | 0.974 | 1.11 | 0.869 | 1 | 0.931 | 1.01 | 0.903 | 0.767 | 0.746 | 0.764 | 0.764
PC-14 | 0.587 | 0.61 | 0.64 | 0.505 | 0.676 | 0.541 | 0.838 | 0.239 | 0.932 | 0.883 | 1.08 | 0.83 | 0.923 | 0.91 | 1.02 | 0.865 | 0.758 | 0.734 | 0.733 | 0.0418
RERF-LC-KJ | 0.508 | 0.523 | 0.47 | 0.417 | 0.458 | 0.559 | 0.585 | 0.579 | 0.721 | 0.82 | 0.872 | 0.853 | 0.883 | 0.856 | 0.894 | 0.886 | 0.527 | 0.586 | 0.573 | 0.383
SK-LU-1 | 0.363 | 0.349 | 0.363 | 0.352 | 0.702 | 0.604 | 0.559 | 0.401 | 0.858 | 0.943 | 0.92 | 0.536 | 0.996 | 1.07 | 0.886 | 0.724 | 0.358 | 0.302 | 0.36 | 0.179
SK-MES-1 | 0.882 | 0.912 | 0.852 | 0.1 | 0.339 | 0.41 | 0.364 | 0.31 | 0.97 | 0.962 | 1.04 | 1.06 | 1 | 1 | 1.08 | 1.01 | 0.61 | 0.56 | 0.536 | 0.218
SW 1573 | 0.196 | 0.165 | 0.246 | 0.128 | 0.478 | 0.539 | 0.537 | 0.325 | 0.893 | 0.845 | 0.88 | 0.819 | 0.74 | 0.806 | 0.768 | 0.758 | 0.564 | 0.787 | 0.551 | 0.254
